# In article PMC9188596, “Structural basis of resistance to herbicides that target acetohydroxyacid synthase” (Nature Communications, 2022):
# Values joined by “and” are separate entries in the source; they are usually repeats but may differ in a detail not shown here. Equal entries are not always repeated. Where two headings read alike, the source gives them in different places.
# Assays:
# [1] = molecular target: T1, AtAHAS P197L mutant (Arabidopsis thaliana, UniProt P17597, P197L); experiment: biochemical
# Protocol: (§1) Standard assays were performed using a continuous spectrophotometric method measuring the disappearance of pyruvate. The standard buffer contained 50 mM potassium phosphate, pH 7.2, 1 mM ThDP, 10 mM MgCl2, and 10 µM FAD. The concentration of pyruvate was in the range 100–160 mM, as described in the text, methods, or figure legends.
# (§2) Supplementary Figure 6. Measurement of the Ki values for WT AtAHAS and the mutants.
# (§3) The error bars represent the standard error of the mean of two independent replicates. [I] =
# (§4) inhibitor concentration. Source data are provided with this paper.
# (§5) (1 picture or pasted object on this page, not shown here)
# [2] = molecular target: T2, AtAHAS P197T mutant (Arabidopsis thaliana, UniProt P17597, P197T); experiment: biochemical
# Protocol: as §1, §2, §3, §4, §5
# [3] = molecular target: T3, AtAHAS S653T mutant (Arabidopsis thaliana, UniProt P17597, S653T); experiment: biochemical
# Protocol: as §1, §2, §3, §4, §5
# [4] = molecular target: T4, AtAHAS W574L mutant (Arabidopsis thaliana, UniProt P17597, W574L); experiment: biochemical
# Protocol: as §1, §2, §3, §4, §5
# [5] = molecular target: T5, WT AtAHAS (Arabidopsis thaliana, UniProt P17597); type: biochemical
# Protocol: as §1
# (§6) AtAHAS was assayed in the standard assay buffer containing 160 mM pyruvate, at 30 °C. For AtAHAS activation the progress curve corresponding to the lag-phase was fitted to Eq. (8) of Lonhienne et al.[14]. For the time dependent accumulative inhibition of AtAHAS the progress curves were fitted to Equation 9 of Lonhienne et al.[12].
# Supplementary Figure 8. Measurement of the rate constants of accumulative inhibition for WT AtAHAS and its mutants. The progress curves were fitted to the equation of accumulative inhibition (Equation 7 2). The rate constants of enzyme inactivation ( kiapp) and enzyme recovery (k3) were measured in triplicate. Source data are provided with this paper.
# [6] = molecular target: T1, AtAHAS P197L mutant; type: biochemical; conditions: NAI = no accumulative inhibition detected
# Protocol: as §1, §6
# (§7) Supplementary Figure 8. Measurement of the rate constants of accumulative inhibition for WT AtAHAS and its mutants. The progress curves were fitted to the equation of accumulative inhibition (Equation 7 2). The rate constants of enzyme inactivation ( kiapp) and enzyme recovery (k3) were measured in triplicate. Source data are provided with this paper. […]
# [7] = molecular target: T2, AtAHAS P197T mutant; type: biochemical; conditions: P197T, NAI = no accumulative inhibition detected
# Protocol: as §1, §6, §7
# [8] = molecular target: T3, AtAHAS S653T mutant; type: biochemical
# Protocol: as §1, §6, §7
# [9] = molecular target: T4, AtAHAS W574L mutant; type: biochemical; conditions: NAI = no accumulative inhibition detected
# Protocol: as §1, §6, §7
# [10] = molecular target: T5, WT AtAHAS; conditions: ± standard error of the mean, cited from earlier work
# [11] = Ki (Supplementary Figure 6), P197L, fit of % activity remaining vs [I], two independent replicates
# [12] = Ki, P197L mutant, ± standard error of the mean
# [13] = Ki, P197T mutant, ± standard error of the mean
# [14] = Ki (Supplementary Figure 6), S653T, fit of % activity remaining vs [I], two independent replicates
# [15] = Ki, S653T mutant, ± standard error of the mean
# [16] = Ki (Supplementary Figure 6), W574L, fit of % activity remaining vs [I], two independent replicates
# [17] = Ki, W574L mutant, ± standard error of the mean
# [18] = individual replicate of triplicate
# [19] = S653T, 160 mM pyruvate, 30 °C, ± SEM
# [20] = S653T, individual replicate of triplicate
smiles,measurement,setting,value
"COc1cnc(OC)n2nc(NS(=O)(=O)c3c(OCC(F)F)cccc3C(F)(F)F)nc12 [PS, penoxsulam]",Ki,[1]; [11],0.0819 ± 0.00726 µM
same,Ki,[1]; [12],0.082 ± 0.007 µM
same,Ki,[2]; [13],0.085 ± 0.0063 µM
same,Ki,[3]; [14],0.00504 ± 0.00224 µM
same,Ki,[3]; [15],0.005 ± 0.0022 µM
same,Ki,[4]; [16],67.1 ± 2.97 µM
same,Ki,[4]; [17],67.1 ± 3 µM
same,increase in Ki / loss of affinity compared to WT,[4]; W574L vs WT,"35,000 fold"
same,kiapp/k3 (efficiency of accumulative inhibition),[5],87
same,k3 (rate of recovery),"[5]; 160 mM pyruvate, 30 °C, ± SEM",0.014 ± 0.002 min⁻¹
same,kiapp (apparent rate of enzyme inactivation),"[5]; 160 mM pyruvate, 30 °C, ± SEM",1.22 ± 0.09 min⁻¹
same,"k3, single progress curve (Supplementary Figure 8)",[5]; [18],0.017 min⁻¹ and 0.011 min⁻¹ and 0.013 min⁻¹
same,"kiapp, single progress curve (Supplementary Figure 8)",[5]; [18],1.4 min⁻¹ and 1.11 min⁻¹ and 1.17 min⁻¹
same,k3 (rate of recovery),"[6]; 160 mM pyruvate, 30 °C",NAI
same,kiapp (apparent rate of enzyme inactivation),"[6]; 160 mM pyruvate, 30 °C",NAI
same,kiapp/k3 (efficiency of accumulative inhibition),[6],NAI
same,k3 (rate of recovery),"[7]; 160 mM pyruvate, 30 °C",NAI
same,kiapp (apparent rate of enzyme inactivation),"[7]; 160 mM pyruvate, 30 °C",NAI
same,kiapp/k3 (efficiency of accumulative inhibition),[7],NAI
same,kiapp/k3 (efficiency of accumulative inhibition),[8]; S653T,126
same,efficiency of accumulative inhibition (kiapp/k3) compared to WT (in words),[8]; S653T vs WT,increased
same,k3 (rate of recovery),[8]; [19],0.015 ± 0.001 min⁻¹
same,kiapp (apparent rate of enzyme inactivation),[8]; [19],1.89 ± 0.12 min⁻¹
same,"k3, single progress curve (Supplementary Figure 8)",[8]; [20],0.013 min⁻¹ and 0.016 min⁻¹ and 0.015 min⁻¹
same,"kiapp, single progress curve (Supplementary Figure 8)",[8]; [20],1.78 min⁻¹ and 2.1 min⁻¹ and 1.71 min⁻¹
same,k3 (rate of recovery),"[9]; 160 mM pyruvate, 30 °C",NAI
same,kiapp (apparent rate of enzyme inactivation),"[9]; 160 mM pyruvate, 30 °C",NAI
same,kiapp/k3 (efficiency of accumulative inhibition),[9],NAI
same,Ki,[10]; ref Lonhienne et al.[11],0.0019 ± 0.0009 µM
"COc1cc(OC)nc(Sc2cccc(Cl)c2C(=O)O)n1 [PTB, pyrithiobac]",Ki,[1]; [11],1.95 ± 0.194 µM
same,Ki,[1]; [12],2 ± 0.2 µM
same,Ki,"[2]; Ki (Supplementary Figure 6), P197T, fit of % activity remaining vs [I], two independent replicates",1.46 ± 0.282 µM
same,Ki,[2]; [13],1.5 ± 0.3 µM
same,Ki,[3]; [14],0.218 ± 0.0158 µM
same,Ki,[3]; [15],0.218 ± 0.0158 µM
same,Ki,[4]; [16],91.2 ± 8.19 µM
same,Ki,[4]; [17],91.2 ± 8.2 µM
same,Ki,[10]; ref Garcia et al.[13],0.179 ± 0.012 µM
